Measurements taken from US8802865B2 (Janssen Pharmaceutica, NV, priority 2006, dated 2014).

Columns and labels:
[1] = system: levator ani; experiment: Levator Ani Weight in vivo Assay (stimulation of levator ani weight); set-up: key: “active” in the Table below if the non weight adjusted levator ani weight was ≧40 mg or the % Stimulation levator ani weight, body weight adjusted was ≧40% at 2 mg/day dosage; listed herein as “inactive” as they did not meet the specified criteria defined above; settings: castrated male Sprague Dawley rats, test compound usually orally once daily with testosterone propionate s.c.; levator ani wet weight; criteria at 2 mg/day dosage
Protocol: (§1) Ventral Prostate and Levator Ani Weight in vivo Assay
(§2) Immature (approximately 50 g) castrated male Sprague Dawley rats (Charles River) were treated once daily for five days with test compound (usually given orally at 40 mg/kg in a volume of 0.3 mL, in 30% cyclodextrin or 0.5% methylcellulose vehicle) and with testosterone propionate (given subcutaneously by injection at the nape of the neck at 2 mg/kg, in a volume of 0.1 mL in sesame oil). On the sixth day, the rats were euthanized by asphyxiation in carbon dioxide. Ventral prostates and levator ani were removed and their wet weights determined. Test compound activity was determined as the percent inhibition of testosterone-enhanced tissue weights, with a vehicle-treated control group set to zero percent and a testosterone alone-treated control group set to 100%.
(§3) Mature (150- to 200-g) castrated male Sprague Dawley rats (Charles River) are similarly tested according to the procedure described above. The rats were dosed for two weeks, with 0.4 mg/kg testosterone propionate used as the positive control.
(§4) Representative compounds of the present invention were tested according to the procedure described above, with results as listed in Table 3 below. For effect on prostate—i.e. an antagonist—a test compound is listed as “active” in the Table below if the non weight adjusted prostate weight was ≦40 mg or the % Inhibition prostate weight, body weight adjusted was ≧40% @ 2 mg/day dosage. For effect on levator ani—i.e. an agonist—a test compound is listed as “active” in the Table below if the non weight adjusted levator ani weight was ≧40 mg or the % Stimulation levator ani weight, body weight adjusted was ≧40% at 2 mg/day dosage.

[2] = system: ventral prostate; experiment: Ventral Prostate Weight in vivo Assay (inhibition of testosterone-enhanced tissue weight); set-up: key: “active” in the Table below if the non weight adjusted prostate weight was ≦40 mg or the % Inhibition prostate weight, body weight adjusted was ≧40% @ 2 mg/day dosage; listed herein as “inactive” as they did not meet the specified criteria defined above; settings: castrated male Sprague Dawley rats, test compound usually orally once daily with testosterone propionate s.c.; ventral prostate wet weight; criteria at 2 mg/day dosage
Protocol: as §1, §2, §3, §4

[3] = system: levator ani; experiment: Levator Ani Weight in vivo Assay (stimulation of levator ani weight); set-up: key: “active” in the Table below if the non weight adjusted prostate weight was ≦40 mg or the % Inhibition prostate weight, body weight adjusted was ≧40% @ 2 mg/day dosage; listed herein as “inactive” as they did not meet the specified criteria defined above; settings: castrated male Sprague Dawley rats, test compound usually orally once daily with testosterone propionate s.c.; levator ani wet weight; criteria at 2 mg/day dosage
Protocol: as §1, §2, §3, §4

SMILES	L.A. agonist [1]	Prostate antagonist [2]	L.A. agonist [3]
C=C=CC(O)(c1nc2cc(Cl)c(Cl)cc2[nH]1)C(F)(F)F (single isomer, unassigned; (+)) [Compound 31, (+)-Enantiomer of 2-(5,6-Dichloro-1H-benzoimidazol-2-yl)-1,1,1-trifluoro-penta-3,4-dien-2-ol]	active	active	–
C=CC(O)(c1nc2cc(Cl)c(Cl)cc2[nH]1)C(F)(F)F (single isomer, unassigned; (+)) [Compound 43, (+)-2-(5,6-dichloro-1H-benzoimidazol-2-yl)-1,1,1-trifluoro-but-3-en-2-ol]	active	inactive	–
C=C=CC(O)(c1nc2cc(Cl)c(Cl)cc2[nH]1)C(F)(F)F (single isomer, unassigned; (-)) [Compound 32, (−)-Enantiomer of 2-(5,6-Dichloro-1H-benzoimidazol-2-yl)-1,1,1-trifluoro-penta-3,4-dien-2-ol]	–	active	inactive
C#CCC(O)(c1nc2cc(Cl)c(Cl)cc2n1C)C(F)(F)F (single isomer, unassigned; (-)) [Compound 37, (−)-Enantiomer of 2-(5,6-Dichloro-1-methyl-1H-benzoimidazol-2-yl)-1,1,1-trifluoro-pent-4-yn-2-ol]	active	inactive	–
C=CC(O)(c1nc2cc(Cl)c(Cl)cc2[nH]1)C(F)(F)F (single isomer, unassigned; (-)) [Compound 44, (−)-2-(5,6-dichloro-1H-benzoimidazol-2-yl)-1,1,1-trifluoro-but-3-en-2-ol]	–	inactive	inactive
C#CCC(O)(c1nc2cc(Cl)c(Cl)cc2[nH]1)C(F)(F)F (stereo not shown) [Compound 2, 2-(5,6-Dichloro-1H-benzoimidazol-2-yl)-1,1,1-trifluoro-pent-4-yn-2-ol]	active	active	–
C=C=CC(O)(c1nc2cc(Cl)c(Cl)cc2[nH]1)C(F)(F)F (stereo not shown) [Compound 3, 2-(5,6-Dichloro-1H-benzoimidazol-2-yl)-1,1,1-trifluoro-penta-3,4-dien-2-ol]	active	active	–
C=CC(O)(c1nc2cc(Cl)c(Cl)cc2[nH]1)C(F)(F)F (stereo not shown) [Compound 4, 2-(5,6-Dichloro-1H-benzoimidazol-2-yl)-1,1,1-trifluoro-but-3-en-2-ol]	active	active	–
C=C=C(C)C(O)(c1nc2cc(Cl)c(Cl)cc2[nH]1)C(F)(F)F (stereo not shown) [Compound 6, 2-(5,6-Dichloro-1H-benzoimidazol-2-yl)-1,1,1-trifluoro-3-methyl-pent-3,4-dien-2-ol]	–	active	inactive
CC#CC(O)(c1nc2cc(Cl)c(Cl)cc2[nH]1)C(F)(F)F (stereo not shown) [Compound 8, 2-(5,6-Dichloro-1H-benzoimidazol-2-yl)-1,1,1-trifluoro-pent-3-yn-2-ol]	–	active	inactive
C=C(C)C(O)(c1nc2cc(Cl)c(Cl)cc2[nH]1)C(F)(F)F (stereo not shown) [Compound 9, 2-(5,6-Dichloro-1H-benzoimidazol-2-yl)-1,1,1-trifluoro-3-methyl-but-3-en-2-ol]	–	active	inactive
OC(c1ccccc1)(c1nc2cc(Cl)c(Cl)cc2[nH]1)C(F)(F)F (stereo not shown) [Compound 10, 1-(5,6-Dichloro-1H-benzoimidazol-2-yl)-2,2,2-trifluoro-1-phenyl-ethanol]	–	active	inactive
C=C(C)CC(O)(c1nc2cc(Cl)c(Cl)cc2[nH]1)C(F)(F)F (stereo not shown) [Compound 13, 2-(5,6-Dichloro-1H-benzoimidazol-2-yl)-1,1,1-trifluoro-4-methyl-pent-4-en-2-ol]	–	active	inactive
CC(C)=CC(O)(c1nc2cc(Cl)c(Cl)cc2[nH]1)C(F)(F)F (stereo not shown) [Compound 14, 2-(5,6-Dichloro-1H-benzoimidazol-2-yl)-1,1,1-trifluoro-4-methyl-pent-3-en-2-ol]	–	active	inactive
C/C=C/C(O)(c1nc2cc(Cl)c(Cl)cc2[nH]1)C(F)(F)F (stereo not drawn) [Compound 16, 2-(5,6-Dichloro-1H-benzoimidazol-2-yl)-1,1,1-trifluoro-trans-pent-3-en-2-ol]	–	active	inactive
OCC#CC(O)(c1nc2cc(Cl)c(Cl)cc2[nH]1)C(F)(F)F (stereo not shown) [Compound 17, 4-(5,6-Dichloro-1H-benzoimidazol-2-yl)-5,5,5-trifluoro-pent-2-yne-1,4-diol]	–	active	inactive
C=CC(C)(C)C(O)(c1nc2cc(Cl)c(Cl)cc2[nH]1)C(F)(F)F (stereo not shown) [Compound 25, 2-(5,6-Dichloro-1H-benzoimidazol-2-yl)-1,1,1-trifluoro-3,3-dimethyl-pent-4-en-2-ol]	–	active	inactive
C=CC(C)C(O)(c1nc2cc(Cl)c(Cl)cc2[nH]1)C(F)(F)F (stereo not shown) [Compound 26]	–	active	inactive
C=C(CC(O)(c1nc2cc(Cl)c(Cl)cc2[nH]1)C(F)(F)F)C(=O)O (stereo not shown) [Compound 27, 2-[2-(5,6-Dichloro-1H-benzoimidazol-2-yl)-3,3,3-trifluoro-2-hydroxy-propyl]-acrylic acid]	–	inactive	inactive
C=CC(c1ccccc1)C(O)(c1nc2cc(Cl)c(Cl)cc2[nH]1)C(F)(F)F (stereo not shown) [Compound 28, 2-(5,6-Dichloro-1H-benzoimidazol-2-yl)-1,1,1-trifluoro-3-phenyl-pent-4-en-2-ol]	–	active	inactive
OC(CC#Cc1ccccc1)(c1nc2cc(Cl)c(Cl)cc2[nH]1)C(F)(F)F (stereo not shown) [Compound 34, 2-(5,6-Dichloro-1H-benzoimidazol-2-yl)-1,1,1-trifluoro-5-phenyl-pent-4-yn-2-ol]	–	inactive	inactive
C#CCC(O)(c1nc2cc(C#N)c(C(F)(F)F)cc2[nH]1)C(F)(F)F (stereo not shown) [Compound 39, 2-(1-Hydroxy-1-trifluoromethyl-but-3-ynyl)-6-trifluoromethyl-1H-benzoimidazole-5-carbonitrile]	–	active	inactive
C=C=C(C)C(O)(c1nc2cc(C#N)c(C(F)(F)F)cc2[nH]1)C(F)(F)F (stereo not shown) [Compound 41, 2-(1-Hydroxy-2-methyl-1-trifluoromethyl-buta-2,3-dienyl)-6-trifluoromethyl-1H-benzoimidazole-5-carbonitrile]	–	active	inactive
CC(C)=C(C)C(O)(c1nc2cc(Cl)c(Cl)cc2[nH]1)C(F)(F)F (stereo not shown) [Compound 42, 2-(5,6-Dichloro-1H-benzoimidazol-2-yl)-1,1,1-trifluoro-3,4-dimethyl-pent-3-en-2-ol]	–	active	inactive
FC(F)(F)C1(c2nc3cc(Cl)c(Cl)cc3n2Cc2ccccn2)OCCO1 [Compound 48]	–	inactive	inactive
OCC1COC(c2nc3cc(Cl)c(Cl)cc3[nH]2)(C(F)(F)F)O1 (stereo not shown) [Compound 49, [2-(5,6-Dichloro-1H-benzoimidazol-2-yl)-2-trifluoromethyl-[1,3]dioxolan-4-yl]-methanol]	–	active	inactive
FC(F)(F)C1(c2nc3cc(Cl)c(Cl)cc3[nH]2)OCCCO1 [Compound 51, 5,6-Dichloro-2-(2-trifluoromethyl-[1,3]dioxan-2-yl)-1H-benzimidazole]	–	active	inactive
N#Cc1cc2nc(C3(C(F)(F)F)OCCO3)[nH]c2cc1C(F)(F)F [Compound 59, 6-Trifluoromethyl-2-(2-trifluoromethyl-[1,3]dioxolan-2-yl)-1H-benzimidazole-5-carbonitrile]	–	active	inactive
FC(F)(F)C1(c2nc3cc(Cl)c(Cl)cc3[nH]2)NCCO1 (stereo not shown) [Compound 61, 5,6-Dichloro-2-(2-trifluoromethyl-oxazolidin-2-yl)-1H-benzimidazole]	–	active	inactive
